Results on 1 compound are retold here after ChEMBL document CHEMBL1151980, “Tubulin-interactive natural products as anticancer agents” (2009).

Molecules are shown by their SMILES.

In the assay the test system is B16. As to the kind of experiment: In vivo antitumor activity against mouse B16 cells assessed as increase in life span. The class given is functional.

As to `CC(=O)O[C@H]1C(=O)[C@@]2(C)[C@H]([C@H](OC(=O)c3ccccc3)[C@]3(O)C[C@H](OC(=O)[C@H](O)[C@@H](NC(=O)c4ccccc4)c4ccccc4)C(C)=C1C3(C)C)[C@]1(OC(C)=O)CO[C@@H]1C[C@@H]2O` [PACLITAXEL], the Activity is recorded as 32%.
